MIC data for ten compounds are collected here from patent US3995044A, “Pyridine carboxylic acid amides for mycobacterium infections” (priority 1974, dated 1976).

Values after ≈ are worked out from the molar mass of the structure shown. Where two headings read alike, the source gives them in different places.

Holding throughout (experiment): microbe, parasite or virus in culture
What all share (type): cell-based

The test system of assay [1] is Mycobacterium tuberculosis INH-res. As to conditions: read-out: Minimum inhibitory concentration (on egg medium), resistant test strain INH-res.
Assay [2] has as its system Mycobacterium tuberculosis INH-TSC-res. The note with it: read-out: Minimum inhibitory concentration (on egg medium), resistant test strain INH-TSC-res.
Assay [3] has as its system Mycobacterium tuberculosis INH TSC ETH-res. As to conditions: read-out: MIC, INH TSC ETH-res.
Assay [4] relates to Mycobacterium tuberculosis PAS-res. The note with it: read-out: MIC, PAS-res.
In assay [5] the test system is Mycobacterium tuberculosis INH-res. The note with it: read-out: MIC, INH-res.
In assay [6] the test system is Mycobacterium tuberculosis SM-res. The note with it: read-out: MIC, SM-res.
Assay [7] relates to Mycobacterium tuberculosis CS-res. As to conditions: read-out: MIC, CS-res.

As for `O=C(NCc1ccncc1)c1cc([N+](=O)[O-])cc([N+](=O)[O-])c1` [Example 13], the MIC in assay [1] and in assay [2] was 128 µg/mL (≈ 423 µM) each time.
Consider `O=C(NCc1cccnc1)c1cc([N+](=O)[O-])cc([N+](=O)[O-])c1` [Example 12], for which the MIC in assay [1] was found to be 8 µg/mL (≈ 26.5 µM); in assay [2], 32 µg/mL (≈ 106 µM).
On to `O=C(NCCc1ccccn1)c1cc([N+](=O)[O-])cc([N+](=O)[O-])c1` [Example 10], for which the MIC was determined as 1 µg/mL (≈ 3.16 µM) in assay [1] and 32 µg/mL (≈ 101 µM) in assay [2].
Turning to `CC(NC(=O)c1cc([N+](=O)[O-])cc([N+](=O)[O-])c1)c1ccccn1` (stereo not shown) [Example 29], the MIC in assay [1] turned out to be 2 µg/mL (≈ 6.32 µM); in assay [3], 0.8 µg/mL (≈ 2.53 µM); in assay [2], 2 µg/mL (≈ 6.32 µM); in assay [4] it was 1.6 µg/mL (≈ 5.06 µM); in assay [5], 1.6 µg/mL (≈ 5.06 µM); in assay [6], 0.8 µg/mL (≈ 2.53 µM). In assay [7], the MIC turned out to be 1.6 µg/mL (≈ 5.06 µM).
Turning to `O=C(NCC1CCC=CO1)c1cc([N+](=O)[O-])cc([N+](=O)[O-])c1` (stereo not shown) [Example 22], the MIC stood at 0.2 µg/mL (≈ 0.651 µM) in assay [3]; 0.8 µg/mL (≈ 2.6 µM) in assay [4]; 0.1 µg/mL (≈ 0.325 µM) in assay [5]; 0.4 µg/mL (≈ 1.3 µM) in assay [6]; 0.4 µg/mL (≈ 1.3 µM) in assay [7].
Take `O=C(NCc1cnc2ccccc2c1)c1cc([N+](=O)[O-])cc([N+](=O)[O-])c1` [Example 9]: the MIC in assay [1] amounted to 2 µg/mL (≈ 5.68 µM); in assay [3], 0.03 µg/mL (≈ 0.0852 µM); in assay [2] it was 2 µg/mL (≈ 5.68 µM); in assay [4], 0.4 µg/mL (≈ 1.14 µM); in assay [5], 0.4 µg/mL (≈ 1.14 µM); in assay [6], 0.2 µg/mL (≈ 0.568 µM). In addition, the MIC in assay [7] was determined as 0.2 µg/mL (≈ 0.568 µM).
Turning to `O=C(NCc1ccc2ccccc2n1)c1cc([N+](=O)[O-])cc([N+](=O)[O-])c1` [Example 15], the MIC worked out at 1 µg/mL (≈ 2.84 µM) in assay [1]; 0.05 µg/mL (≈ 0.142 µM) in assay [3]; 1 µg/mL (≈ 2.84 µM) in assay [2]; 0.4 µg/mL (≈ 1.14 µM) in assay [4]; 0.1 µg/mL (≈ 0.284 µM) in assay [5]; 0.1 µg/mL (≈ 0.284 µM) in assay [6]. Further, the MIC in assay [7] worked out at 0.2 µg/mL (≈ 0.568 µM).
With `O=C(NCc1ccccn1)c1cc([N+](=O)[O-])cc([N+](=O)[O-])c1` [Example 1, N-(pyrid-2-ylmethyl)-3,5-dinitrobenzoic acid amide], the MIC in assay [1] came to 1 µg/mL (≈ 3.31 µM); in assay [3], 0.8 µg/mL (≈ 2.65 µM); in assay [2], 1 µg/mL (≈ 3.31 µM); in assay [4], 1.6 µg/mL (≈ 5.29 µM); in assay [5], 0.8 µg/mL (≈ 2.65 µM); in assay [6], 1.6 µg/mL (≈ 5.29 µM). Moreover, the MIC in assay [7] was determined as 1.6 µg/mL (≈ 5.29 µM).
Consider `Cc1cccc(CNC(=O)c2cc([N+](=O)[O-])cc([N+](=O)[O-])c2)n1` [Example 14], for which the MIC is 0.8 µg/mL (≈ 2.53 µM) in assay [3]; 1.6 µg/mL (≈ 5.06 µM) in assay [4]; 0.8 µg/mL (≈ 2.53 µM) in assay [5]; 1.6 µg/mL (≈ 5.06 µM) in assay [6]; 1.6 µg/mL (≈ 5.06 µM) in assay [7].
For the compound `O=C(NCC1CCCO1)c1cc([N+](=O)[O-])cc([N+](=O)[O-])c1` (stereo not shown) [Example 20], the MIC in assay [3], in assay [4], in assay [5], in assay [6] and in assay [7] was 1.6 µg/mL (≈ 5.42 µM) each time.
